Tests used:
[1] = target: T1, Melanocortin receptor 4 (Homo sapiens, UniProt P32245); assay: Displacement of [125I]-MT-II from human recombinant MC4 receptor expressed in CHO cells by scintillation counting
[2] = target: Voltage-gated inwardly rectifying potassium channel KCNH2 (Homo sapiens, UniProt Q12809); assay: Displacement of [3H]dofetilide from human ERG expressed in CHO cells by patch clamp method
[3] = target: T2, Melanocyte-stimulating hormone receptor (Homo sapiens, UniProt Q01726); assay: Agonist activity at human recombinant MC1 receptor expressed in HEK293 cells assessed as cAMP accumulation by enzyme fragment complementation assay; type: functional, cell-based
Target sequence in this assay (Q01726 whole entry, the tested form may be a part): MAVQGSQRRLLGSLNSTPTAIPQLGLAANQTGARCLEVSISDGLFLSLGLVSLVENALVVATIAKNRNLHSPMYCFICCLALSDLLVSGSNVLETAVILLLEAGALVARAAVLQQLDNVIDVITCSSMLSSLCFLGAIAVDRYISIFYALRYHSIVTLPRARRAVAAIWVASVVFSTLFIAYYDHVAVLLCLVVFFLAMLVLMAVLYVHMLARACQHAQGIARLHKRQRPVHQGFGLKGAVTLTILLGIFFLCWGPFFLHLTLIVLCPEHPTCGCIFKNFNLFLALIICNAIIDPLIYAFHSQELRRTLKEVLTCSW

[4] = target: T3, Melanocortin receptor 3 (Homo sapiens, UniProt P41968); assay: Agonist activity at human recombinant MC3 receptor expressed in CHO cells assessed as cAMP accumulation by enzyme fragment complementation assay; type: functional, cell-based
T3 sequence (P41968 whole entry, the tested form may be a part): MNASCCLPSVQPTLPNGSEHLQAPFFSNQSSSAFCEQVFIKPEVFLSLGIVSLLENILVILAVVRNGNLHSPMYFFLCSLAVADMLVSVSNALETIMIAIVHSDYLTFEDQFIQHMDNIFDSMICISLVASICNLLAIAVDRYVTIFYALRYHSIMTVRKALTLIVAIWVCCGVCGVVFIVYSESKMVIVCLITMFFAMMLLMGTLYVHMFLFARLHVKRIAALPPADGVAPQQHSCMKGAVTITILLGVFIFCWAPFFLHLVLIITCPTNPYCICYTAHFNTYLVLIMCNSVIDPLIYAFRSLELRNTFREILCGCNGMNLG

[5] = target: T1, Melanocortin receptor 4; assay: Agonist activity at human recombinant MC4 receptor expressed in CHO cells by cAMP responsive beta lactamase reporter gene assay; type: functional, cell-based
[6] = Lipophilicity, log D at pH 7.4; type: physicochemical; settings: buffer
[7] = Intrinsic clearance in human liver microsome measured per mg of protein; type: ADME; settings: liver microsomes
[8] = target: T3, Melanocortin receptor 3; assay: Agonist activity at human recombinant MC3 receptor expressed in CHO cells assessed as cAMP accumulation by enzyme fragment complementation assay relative to […]; type: functional, cell-based
[9] = target: T4, Melanocortin receptor 5 (Homo sapiens, UniProt P33032); assay: Agonist activity at human recombinant MC5 receptor expressed in HEK293 cells assessed as cAMP accumulation by beta lactamase reporter gene assay relative to alpha melanocyte-stimulating hormone; type: functional, cell-based
T4 sequence (P33032 whole entry): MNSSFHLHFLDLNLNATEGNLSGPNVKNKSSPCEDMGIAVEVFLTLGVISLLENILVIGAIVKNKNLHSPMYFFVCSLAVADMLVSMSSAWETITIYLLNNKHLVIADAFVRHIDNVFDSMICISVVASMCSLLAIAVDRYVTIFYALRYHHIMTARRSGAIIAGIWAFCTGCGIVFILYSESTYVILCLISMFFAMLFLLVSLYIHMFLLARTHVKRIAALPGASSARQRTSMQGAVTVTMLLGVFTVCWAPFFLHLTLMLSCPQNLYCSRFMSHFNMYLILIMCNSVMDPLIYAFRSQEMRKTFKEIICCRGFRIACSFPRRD

[10] = target: T4, Melanocortin receptor 5; assay: Agonist activity at human recombinant MC5 receptor expressed in HEK293 cells assessed as cAMP accumulation by beta lactamase reporter gene assay; type: functional, cell-based
[11] = target: T2, Melanocyte-stimulating hormone receptor; assay: Agonist activity at human recombinant MC1 receptor expressed in HEK293 cells assessed as cAMP accumulation by enzyme fragment complementation assay relative to alpha melanocyte-stimulating hormone; type: functional, cell-based
Target sequence in this assay (Q01726 whole entry, looked up, the tested form may be a part): as the sequence (Q01726 whole entry, the tested form may be a part) above

[12] = system: Liver microsomes; assay: Intrinsic clearance in rat liver microsome measured per mg of protein; type: ADME
[13] = Clearance in rat at 1 mg/kg, iv; type: ADME, organism-based; design: dose 1 mg/kg, route intravenous; settings: in vivo
[14] = Volume of distribution at steady state in dog plasma at 0.05 mg/kg, iv; type: ADME, organism-based, Canis lupus familiaris; design: dose 0.05 mg/kg, route intravenous; settings: read-out: Vdss
[15] = Half life in rat at 1 mg/kg, iv; type: ADME, organism-based; design: dose 1 mg/kg, route intravenous; settings: in vivo
[16] = Oral bioavailability in dog at 0.1 mg/kg; type: ADME, organism-based, Canis lupus familiaris; settings: in vivo
[17] = Oral bioavailability in rat at 0.1 mg/kg; type: ADME, organism-based; settings: in vivo
[18] = Intrinsic clearance in dog liver microsome measured per mg of protein; type: ADME, Canis lupus familiaris; settings: microsomes
[19] = Apparent Permeability from basolateral to apical side of MDCK2 cells over expressing MDR1; type: ADME, cell-based, Canis lupus familiaris; settings: dog, MDCK-MDR1; read-out: permeability
[20] = Apparent Permeability from apical to basolateral side of MDCK2 cells over expressing MDR1; type: ADME, cell-based, Canis lupus familiaris; settings: dog, MDCK-MDR1; read-out: permeability
[21] = Clearance in dog plasma at 0.05 mg/kg, iv; type: ADME, organism-based, Canis lupus familiaris; design: dose 0.05 mg/kg, route intravenous
[22] = Fraction unbound in rat plasma; type: ADME, cell-free
[23] = Fraction unbound in dog plasma; type: ADME, cell-free, Canis lupus familiaris
[24] = Half life in dog at 0.05 mg/kg, iv; type: ADME, organism-based, Canis lupus familiaris; design: dose 0.05 mg/kg, route intravenous; settings: in vivo
[25] = Volume of distribution at steady state in rat at 1 mg/kg, iv; type: ADME, organism-based; design: dose 1 mg/kg, route intravenous; settings: in vivo, read-out: Vdss
[26] = Binding affinity to sodium channel
[27] = Association constant, pKa of the compound; type: physicochemical

Chain of Voltage-gated inwardly rectifying potassium channel KCNH2 (Q12809 whole entry, the tested form may be a part): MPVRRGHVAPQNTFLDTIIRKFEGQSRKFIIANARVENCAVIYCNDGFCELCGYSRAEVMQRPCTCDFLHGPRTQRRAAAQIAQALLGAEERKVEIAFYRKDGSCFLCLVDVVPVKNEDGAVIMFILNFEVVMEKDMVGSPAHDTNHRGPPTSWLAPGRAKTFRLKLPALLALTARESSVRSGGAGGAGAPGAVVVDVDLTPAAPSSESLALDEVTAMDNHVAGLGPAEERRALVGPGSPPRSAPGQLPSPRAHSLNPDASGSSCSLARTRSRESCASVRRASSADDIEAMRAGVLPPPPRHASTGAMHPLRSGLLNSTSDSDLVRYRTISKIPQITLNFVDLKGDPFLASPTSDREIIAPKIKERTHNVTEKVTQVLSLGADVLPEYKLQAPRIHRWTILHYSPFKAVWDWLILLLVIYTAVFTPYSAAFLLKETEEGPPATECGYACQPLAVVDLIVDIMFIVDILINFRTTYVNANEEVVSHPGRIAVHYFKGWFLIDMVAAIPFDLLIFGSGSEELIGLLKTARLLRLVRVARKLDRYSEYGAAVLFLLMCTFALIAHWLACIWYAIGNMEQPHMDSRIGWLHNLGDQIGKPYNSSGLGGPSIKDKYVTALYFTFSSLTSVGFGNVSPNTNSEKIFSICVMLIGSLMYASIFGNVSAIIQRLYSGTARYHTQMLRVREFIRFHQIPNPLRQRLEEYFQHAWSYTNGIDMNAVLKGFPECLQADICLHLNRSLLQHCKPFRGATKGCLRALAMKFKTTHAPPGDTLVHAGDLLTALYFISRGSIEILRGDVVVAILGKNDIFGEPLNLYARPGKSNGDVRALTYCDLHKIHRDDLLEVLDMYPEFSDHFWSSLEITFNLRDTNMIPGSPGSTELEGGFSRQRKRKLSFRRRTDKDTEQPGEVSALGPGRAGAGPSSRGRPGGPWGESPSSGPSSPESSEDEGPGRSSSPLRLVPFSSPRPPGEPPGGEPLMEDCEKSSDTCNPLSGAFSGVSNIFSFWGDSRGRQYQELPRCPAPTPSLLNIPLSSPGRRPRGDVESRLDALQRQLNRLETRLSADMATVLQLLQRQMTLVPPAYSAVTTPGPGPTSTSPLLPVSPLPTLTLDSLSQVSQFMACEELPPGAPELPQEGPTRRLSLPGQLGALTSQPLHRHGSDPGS
T1 sequence (P32245 whole entry): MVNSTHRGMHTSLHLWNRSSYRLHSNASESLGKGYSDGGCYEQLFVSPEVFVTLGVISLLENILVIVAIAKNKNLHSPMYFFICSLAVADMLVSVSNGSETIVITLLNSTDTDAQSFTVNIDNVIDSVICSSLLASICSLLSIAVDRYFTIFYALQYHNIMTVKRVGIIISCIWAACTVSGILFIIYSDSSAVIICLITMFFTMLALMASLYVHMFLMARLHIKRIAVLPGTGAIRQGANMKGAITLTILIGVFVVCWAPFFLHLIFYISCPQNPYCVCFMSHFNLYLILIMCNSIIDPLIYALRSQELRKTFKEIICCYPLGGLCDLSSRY

Compound | Ki [1] [nM] | Ki [2] [nM] | EC50 [3] [nM] | EC50 [4] [nM] | EC50 [5] [nM] | logD [6] | microsomal CLint [7] [µL/min/mg] | Emax [8] [%] | Emax [9] [%] | EC50 [10] [nM] | Emax [11] [%] | further results
C[C@@H]1CN(C(=O)[C@H]2CN(C3CC3)C[C@@H]2c2ccc(F)cc2F)C[C@H](C)[C@@]1(O)c1ccccc1 | 290 | > 9170 | > 4910 | > 33300 | 55 | > 4 | 342 |  |  |  |  | 
CC(C)N1C[C@@H](C(=O)N2C[C@@H](C)[C@](O)(c3ccccc3)[C@@H](C)C2)[C@H](c2ccc(F)cc2F)C1 | 114 | > 7880 | 750 | 11600 | 69 | 3.2 | 128 | 72 | 103 | 3640 | 100 | 
C[C@@H]1CN(C(=O)[C@H]2CN(c3cccnc3)C[C@@H]2c2ccc(F)cc2F)C[C@H](C)[C@@]1(O)c1ccccc1 | 50 | 5070 | > 8220 | 65 | 5 |  |  | 90 |  |  |  | 
C[C@@H]1CN(C(=O)[C@@H]2CNC[C@H]2c2ccc(F)cc2F)C[C@H](C)[C@@]1(O)c1ccccc1 | 264 | 6650 | > 8740 | > 25200 | 462 |  |  |  |  | > 20000 |  | 
C[C@@H]1CN(C(=O)[C@@H]2CN(C(C)(C)C)C[C@H]2c2ccc(F)cc2F)C[C@H](C)[C@@]1(O)c1ccc(F)cc1.Cl | 36 |  | 1120 | 3050 | 18 | 3.1 | 28 | 79 | 116 | 3600 | 99 | clearance [12]: 47 µL/min/mg; clearance [13]: 34 mL/min/kg; Vd [14]: 11 L/kg; half-life [15]: 3.9 h; bioavailability [16]: 28%; bioavailability [17]: 74%; clearance [18]: 8 µL/min/mg; Papp B→A [19]: 22 ×10⁻⁶ cm/s; Papp A→B [20]: 26 ×10⁻⁶ cm/s; clearance [21]: 12 mL/min/kg; fraction unbound [22]: 0.04; fraction unbound [23]: 0.09; half-life [24]: 10.4 h; Vd [25]: 11 L/kg; Ki [26]: 520 nM; pKa [27]: 8.74
C[C@@H]1CN(C(=O)[C@@H]2CN(C(C)(C)C)C[C@H]2c2ccc(F)cc2F)C[C@H](C)[C@@]1(O)c1c(F)cccc1F | 99 | 5000 | > 5010 | 4570 | 45 |  |  | 76 |  | > 5810 |  | 
C[C@@H]1CN(C(=O)[C@@H]2CN(C(C)(C)C)C[C@H]2c2ccc(F)cc2F)C[C@H](C)[C@@]1(O)c1ccccn1 | 350 | 5840 | 1170 | > 33300 | 46 |  |  |  | 100 |  | 97 | 
C[C@@H]1CN(C(=O)[C@H]2CN(c3ccncn3)C[C@@H]2c2ccc(F)cc2F)C[C@H](C)[C@@]1(O)c1ccccc1 | 64 | > 10000 | > 9000 | 600 | 4 |  |  | 75 |  | > 14000 |  | 
C[C@@H]1CN(C(=O)[C@@H]2CN(C(C)(C)C)C[C@H]2c2ccc(F)cc2F)C[C@H](C)[C@@]1(O)c1ccc(Cl)cc1 | 48 | > 10000 | > 5880 | 3680 | 30 | 3.9 | 16 | 75 | 107 | 5190 |  | 
CCCC[C@H](NC(C)=O)C(=O)N[C@H]1CC(=O)NCCCC[C@@H](C(N)=O)NC(=O)[C@H](Cc2c[nH]c3ccccc23)NC(=O)[C@H](CCCNC(=N)N)NC(=O)C(Cc2ccccc2)NC(=O)[C@H](CC2=NC=NC2)NC1=O (single isomer, unassigned) |  |  |  |  |  |  |  | 87 | 61 |  | 98 | 
C[C@@H]1CN(C(=O)[C@H]2CN(C3CCOCC3)C[C@@H]2c2ccc(F)cc2F)C[C@H](C)[C@@]1(O)c1ccccc1 | 36 | > 5270 | > 11900 | > 14500 | 18 | 3.1 | 151 |  |  | > 20000 |  | 

Source: ChEMBL document CHEMBL1156187, “Discovery of a selective small-molecule melanocortin-4 receptor agonist with efficacy in a pilot study of sexual dysfunction in humans” (J Med Chem, 2010)
